According to US20030134859A1 (SANKYO COMPANY, LIMITED, priority 2000, published 2003):
Read-outs that look alike come from different tables or passages of the source.

Key:
lenses = assay: Cataract assessment: opacity of cultured lenses exposed to hydrogen peroxide; parameters: species or system rat; conditions: 100 nM test compound with 5 mM hydrogen peroxide; 24 hr; clear: 0, slightly opaque: 1, moderately opaque: 2
Protocol: The lenses were isolated from Sprague-Dawley rats (male, purchased from SLC Japan), and the lenses were pre-cultured in a medium (Medium-199: GIBCO BRL) for 3 hr and the lenses maintaining transparency were selected and used in the experiment. The crystalline lenses were cultured for 24 hr in the following 3 groups; 1) in Medium-199 (3 mL), 2) in Medium-199 (3 mL) containing hydrogen peroxide (final concentration: 5 mM) and 3) in Medium-199 (3 mL) containing the test compound (final concentration: 100 nM), DMSO (final concentration: 0.1% v/v) and hydrogen peroxide (final concentration: 5 mM). After finalising culturing, the opacity of the lens was scored based on the following criteria: clear: 0, slightly opaque: 1, moderately opaque: 2. Thus the improving effect of the test compound on cataracts was assessed.

[1] = system: Mouse preadipocyte strain 3T3-L1; assay: Inhibition of differentiation as an indication of acetic acid uptake; assay type: cell-based; conditions: Mus musculus, 3T3-L1, 0.1 μM test substance, control (0.01% dimethylsulfoxide) = 100%, read-out: Rate of Uptake (%) of [2-14C] acetic acid
Outline: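 Confluent 3T3-L1 cells induced to differentiate for 4 days (insulin, IBMX, dexamethasone, 5% FBS) with test compound at 0.1 μM final or 0.01% DMSO, then 2 days in insulin maintenance medium, at 37 °C, 10% CO2. [2-14C]acetic acid uptake over 1 hr counted by scintillation; expressed as % of DMSO control.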

Balb/c mice = assay: Prevention of concanavalin A liver injury; assay type: in vivo, mouse; conditions: Mus musculus, po, 24 h, 10 mg/mL suspension at 10 mL/kg, 30 min prior to Con A, plasma 24 hr after Con A
Protocol: Five (5) Balb/c mice (female, 6-8 weeks old) per group were used. Liver injury was elicited in the mouse by injection of concanavalin A (Con A) dissolved in saline (2.0 mg/mL) into the tail vein at a volume of 10 mL/kg of the solution (Hepatology, 21, 190-198 (1995)).
The test compounds were suspended in distilled water containing 0.5% CMC, at a concentration of 10 mg/mL. This suspended solution was orally administered to the mouse at a volume of 10 mL/kg, 30 min prior to injection of Con A (group A).
Apart from this group, distilled water containing 0.5% CMC powder, instead of the test compound, was orally administered in the second group of mice (group B). In the 3rd group, nothing was given to the mice (group C).
Twenty four (24) hr after the injection of Con A, blood was collected from the abdominal aorta of the mice and the plasma was isolated while mixing with heparin. Activities of glutamic acid oxaloacetic acid transaminase (AST) and glutamic acid pyruvic acid transaminase (ALT) in the plasma were determined according to the methods described by Nagakawa et al. (J. Pharmacol. Exp. Ther., 264, 496-500 (1993)). From the values obtained inhibitory rates of the test compound against AST and ALT levels which had been increased by injection of Con A, were obtained based on the following equation.
Inhibitory Rate(%)={1−[(A−C)/(B−C)]}×100
A: The average level of AST or ALT in the group A
B: The average level of AST or ALT in the group B
C: The average level of AST or ALT in the group C

TNF-α production = assay: Inhibitory activity against cytokine (TNF-α) production in LPS-stimulated RAW264.7 cells; assay type: cell-based, mouse; conditions: Mus musculus, RAW264.7, 15 h, 1 μM test compound, LPS 10 ng/mL
Protocol: The mouse monocyte/macrophage cell line, RAW264.7 (ATCC TIB71) was purchased from Dainippon Pharmaceutical Co., Ltd. The RAW264.7 cells were cultured in a CO2 incubator (37° C., 95% of humidity, 5% of CO2) by using the Dulbecco's modified Eagle's medium (DMEM medium; GIBCO, Cat. No. 11995-040) containing bovine fetal serum (the final concentration: 10% (v/v), MOREGATE, lot No. 474030), penicillin G (the final concentration: 50 units/mL […], GIBCO) and streptomycin (the final concentration: 20 μg/mL, GIBCO).
Sixty (60) μL of the RAW264.7 cell suspension (83,000 cells/mL) were plated into each well of a 96-well microplate (5,000 cells/well). After the cells were cultured for 4 hr in a CO2 incubator, 40 μL of DMEM medium containing 25 ng/mL of LPS (Sigma-Aldrich Japan K. K.) were added into each well (final concentration of LPS: 10 ng/mL). The test compound dissolved in DMSO at a concentration of 1 mM was diluted with DMEM medium by 20 times. Then 2 μL/well of the diluted solution were added to wells containing the plated cells (final concentration of the test compound: 1 μM). As the control, 2 μL/well of DMSO diluted with DMEM medium by 20 times were added to wells containing the plated cells either with LPS (final concentration: 10 ng/mL) or without LPS. After these cells were cultured in a CO2 incubator for 15 hr, the supernatant of the medium was recovered. The amount of mTNF-α in the medium supernatant was determined with a mouse TNF-α ELISA kit Quantikine M (R&D System), according to the experiment protocol attached with the kit.
The inhibitory activity of the test compound against TNF-α production was calculated according to the following equation.
A: The amount of TNF-α in the presence of test compound
B: The amount of TNF-α in the control without LPS
C: The amount of TNF-α in the control with 10 ng/mL of LPS
Inhibitory Activity of the Test Compound against TNF-α Production (%)=100−(A−B)/(C−B)×100

[2] = read-out: Preventing rate against liver injury, ALT (%)
[3] = read-out: Preventing rate against liver injury, AST (%)

SMILES | opacity of the lens (average score) (lenses) | activity at 0.1 µM [1] | inhibition in vivo at 10000 µg/mL, 100 mg/kg (Balb/c mice; [2]) | inhibition in vivo at 10000 µg/mL, 100 mg/kg (Balb/c mice; [3]) | inhibition at 1 µM (TNF-α production)
CN(C)c1ccc(-c2ccc(NC(=O)c3cc([N+](=O)[O-])ccc3Cl)cc2)cc1 [Example 53, N-[4-(4-Dimethylaminophenyl)phenyl]-(2-chloro-5-nitrophenyl)carboxamide] | 1.0 | 76.2% | 22% | 1.7% | 15.6%
CC(C)(C)c1cc(-c2csc(NC(=O)c3cc([N+](=O)[O-])ccc3Cl)n2)cc(C(C)(C)C)c1O [Example 139, N-[4-(3,5-di-tert-Butyl-4-hydroxyphenyl)thiazol-2-yl]-(2-chloro-5-nitrophenyl)carboxamide] | 1.0 | 59.2% | 54% | 48.4% | 42.7%
